In brackets after ≈: the same amount, converted by molar mass. Where a name gives a salt, the structure may show the parent alone. Read-outs that look alike come from different tables or passages of the source.
Experiments:
[1] = test system: Staphylococcus aureus; assay: In vivo activity against Staphylococcus aureus in an acute lethal mouse model; details: Staphylococcus aureus, 168 h, mice infected intraperitoneally, dosed 1 h and 4 h post-infection, survivors on seventh day, read-out: ED50
Description: The in vivo potency of these compounds is exemplified by the data summarized in Table X. Determinations of in vivo efficacy are performed by inoculating mice intraperitoneally with cultures of the infecting organism diluted to produce 100% mortality in control animals within twenty-four hours. The culture of S. aureus used to infect the animals was diluted to the required bacterial density using 5% aqueous hog gastric mucin. The compounds are dissolved or suspended in 0.25% aqueous Methocel® (Methocel®: Hydroxypropyl Methylcullulose, E15 Premium, Dow Chemical Company) for oral administration or sterile distilled water containing 5% dimethylsulfoxide (Fisher Scientific Company, Fairlawn, N.J.) for subcutaneous administration. The mice are dosed at one hour and at four hours post-infection. Mortality is recorded daily until test determination seven days post infection. The number of survivors in each treatment group on the seventh day after infection is used in the calculation of the ED50, the dose of compound that protects 50% of the mice (Litchfield,J. T. and Wildoxon. A simulated method for evaluating dose-effect experiments. J. Pharmacol Exp. Ther., 98:99-113, 1949).

[2] = test system: Staphylococcus aureus; assay: In vitro broth microdilution, 24-hour minimal inhibitory concentration (MIC); assay type: cell-based; details: Mueller-Hinton broth, read-out: Minimum Inhibitory Concentration
Source text: (§1) A standard microdilution method (National Committee for Clinical Standards. Tentative standard M7-T. Standard methods for dilution antimicrobial susceptibility tests for bacteria that grow aerobically. National Committee for Clinical Laboratory Standards, Villanova, Pa. 1982) with Mueller-Hinton broth is used to determine the 24-hour minimal inhibitory concentrations (MIC's) for test strains of Staphylococcus aureus and Escherichia coli.

[3] = test system: Escherichia coli; assay: as above; assay type: cell-based; details: Mueller-Hinton broth, read-out: Minimum Inhibitory Concentration
Source text: as §1

[4] = sc, Subcutaneous Administration

| Compound | ED50 ([1]; Oral Administration) | ED50 [1, 4] | MIC [2] | MIC [3] |
| --- | --- | --- | --- | --- |
| CC(=O)NC[C@H]1CN(c2ccc(-c3ccc(C(O)CCN(C)C)cc3)cc2)C(=O)O1 (single isomer, unassigned) [Example 58, (l)-N-[3-(4-(4'-(3-N,N-Dimethylamino-1-hydroxypropyl)phenyl)phenyl)-2-oxooxazolidin-5-ylmethyl]acetamide] | 13.8 mg/kg | 2 mg/kg | 1 µg/mL (≈ 2.43 µM) | > 128 µg/mL |
| CCN(CC)Cc1ccc(-c2ccc(N3C[C@H](CNC(C)=O)OC3=O)cc2)cc1 [Example 43, (l)-N-[3-(4-(4'-diethylaminomethylphenyl)phenyl)-2-oxooxazolidin-5-ylmethyl]acetamide] | 6.4 mg/kg | 3.7 mg/kg | 4 µg/mL (≈ 10.1 µM) | > 128 µg/mL |
| CCCCN(CCCC)Cc1ccc(-c2ccc(N3C[C@H](CNC(C)=O)OC3=O)cc2)cc1 [Example 46] |  | 30 mg/kg | 4 µg/mL (≈ 8.86 µM) | > 128 µg/mL |
| CC(=O)NC[C@H]1CN(c2ccc(-c3ccc(C(=O)CCN4CCN(C)CC4)cc3)cc2)C(=O)O1 [Example 60] | 30 mg/kg | 5.5 mg/kg | 1 µg/mL (≈ 2.15 µM) | > 128 µg/mL |
| CCc1ccc(-c2ccc(N3C[C@H](CNC(C)=O)OC3=O)cc2)cc1 [Example 114, (l)-N-[3-(4-(4'-Ethylphenyl)phenyl)-2-oxooxazolidin-5-ylmethyl]acetamide] | 8.1 mg/kg | > 100 mg/kg | 0.5 µg/mL (≈ 1.48 µM) | > 128 µg/mL |
| CC(=O)NC[C@H]1CN(c2ccc(-c3ccno3)cc2)C(=O)O1 [Example 130, (l)-N-[3-[4-(5-Isoxazolyl)phenyl]-2-oxooxazolidin-5-ylmethyl]acetamide] | 6 mg/kg | 6 mg/kg | 1 µg/mL (≈ 3.32 µM) | > 128 µg/mL |
| CC(=O)NCC1CN(c2ccc(-c3ccc([N+](C)(C)[O-])cc3)cc2)C(=O)O1 (stereo not drawn) [Example 116] |  | 6.4 mg/kg | 16 µg/mL (≈ 43.3 µM) | > 128 µg/mL |
| CC(=O)NC[C@H]1CN(c2ccc(-c3ccccc3C)cc2)C(=O)O1 [Example 71] | 51.9 mg/kg | > 90 mg/kg | 2 µg/mL (≈ 6.17 µM) | > 128 µg/mL |
| CC(=O)NC[C@H]1CN(c2ccc(-c3cccc([N+](=O)[O-])c3)cc2)C(=O)O1 [Example 119] | 6.2 mg/kg | 5 mg/kg | < 0.13 µg/mL | > 128 µg/mL |
| CCc1cccc(-c2ccc(N3C[C@H](CNC(C)=O)OC3=O)cc2)c1 [Example 70] | 17 mg/kg | 10 mg/kg | 2 µg/mL (≈ 5.91 µM) | > 128 µg/mL |
| CC(=O)NC[C@H]1CN(c2ccc(-c3ccc(C(C)=NOC(=O)CCC(=O)O)cc3)cc2)C(=O)O1 [Example 23, Sodium Salt of Succinate Hemiester of (l)-N-[3-(4-(4'-(1-Hydroxyiminoethyl)phenyl)phenyl)-2-oxooxazolidin-5-ylmethyl]acetamide] | 17.3 mg/kg | 24.3 mg/kg | 1 µg/mL | > 128 µg/mL |
| CC(=O)NC[C@H]1CN(c2ccc(-c3ccc(C(C)=NOCC(=O)O)cc3)cc2)C(=O)O1 [Example 24, (l)-N-[3-(4-(4'-(1-Carboxymethoxyliminoethyl)phenyl)phenyl)-2-oxooxazolidin-5-ylmethyl]acetamide] | > 90 mg/kg | > 90 mg/kg | 8 µg/mL (≈ 18.8 µM) | > 128 µg/mL |
| CC(=O)NC[C@H]1CN(c2ccc(-c3ccc(C(O)CCN4CCN(C)CC4)cc3)cc2)C(=O)O1 (stereo partly drawn) [Example 61] | 47.4 mg/kg | 2.7 mg/kg | 2 µg/mL (≈ 4.29 µM) | > 128 µg/mL |
| CCCCCCCCNCc1ccc(-c2ccc(N3C[C@H](CNC(C)=O)OC3=O)cc2)cc1 [Example 49] | 65.2 mg/kg | > 90 mg/kg | 1 µg/mL (≈ 2.21 µM) | > 128 µg/mL |
| C=C(C)C(=O)c1ccc(-c2ccc(N3C[C@H](CNC(C)=O)OC3=O)cc2)cc1 [Example 63] | > 90 mg/kg | > 90 mg/kg | 0.25 µg/mL (≈ 0.661 µM) | > 128 µg/mL |
| CC(=O)NC[C@H]1CN(c2ccc(-c3ccc(C(=O)CCl)cc3)cc2)C(=O)O1 [Example 8] | > 90 mg/kg | > 90 mg/kg | < 0.13 µg/mL | > 128 µg/mL |
| CC(=O)NC[C@H]1CN(c2ccc(-c3ccc(-c4nn[nH]n4)cc3)cc2)C(=O)O1 [Example 38, (l)-N-[3-(4-(4'-(5-Tetrazolyl)phenyl)phenyl)-2-oxooxazolidin-5-ylmethyl]acetamide] |  | > 90 mg/kg | 64 µg/mL (≈ 169 µM) | > 128 µg/mL |
| CCC(=O)c1ccc(-c2ccc(N3C[C@H](CNC(C)=O)OC3=O)cc2)cc1 [Example 7] |  | 90 mg/kg | 2 µg/mL (≈ 5.46 µM) | > 128 µg/mL |
| CC(=O)NC[C@H]1CN(c2ccc(-c3cccc(N(C)C)c3)cc2)C(=O)O1 [Example 74] |  | 17.1 mg/kg | 8 µg/mL (≈ 22.6 µM) | > 128 µg/mL |
| CC(=O)NC[C@H]1CN(c2ccc(-c3ccc([S+](C)[O-])cc3)cc2)C(=O)O1 (single isomer, unassigned) [Example 68, (l)-N-[3-(4-(4'-methylsulfinylphenyl)phenyl)-2-oxooxazolidin-5-ylmethyl]acetamide] | 2.2 mg/kg | 0.7 mg/kg | 0.25 µg/mL (≈ 0.671 µM) | > 128 µg/mL |
| CC(=O)NC[C@H]1CN(c2ccc(-c3ccccc3)cc2)C(=O)O1 [Example 3, (l)-N-[3-(4-Phenylphenyl)-2-oxooxazolidin-5-ylmethyl]acetamide] | 2.9 mg/kg | 2 mg/kg | 0.5 µg/mL (≈ 1.61 µM) | > 128 µg/mL |
| CC(=O)NC[C@H]1CN(c2ccc(-c3ccc(C(=O)CCC(=O)O)cc3)cc2)C(=O)O1 [Example 9] | > 90 mg/kg | 16.8 mg/kg | < 0.13 µg/mL | > 128 µg/mL |
| CCCCNCc1ccc(-c2ccc(N3C[C@H](CNC(C)=O)OC3=O)cc2)cc1 [Example 45] |  | 13.9 mg/kg | 0.5 µg/mL (≈ 1.26 µM) | > 128 µg/mL |
| CC(=O)NC[C@H]1CN(c2ccc(-c3ccc(C(O)CCN4CCOCC4)cc3)cc2)C(=O)O1 (single isomer, unassigned) [Example 59, (l)-N-[3-(4-(4'-(1-hydroxy-3-(4-morpholinyl)propyl)phenyl)phenyl)-2-oxooxazolidin-5-ylmethyl]acetamide] | 7 mg/kg | 2.7 mg/kg | 2 µg/mL (≈ 4.41 µM) | > 128 µg/mL |
| CC(=O)NC[C@H]1CN(c2ccc(-c3ccccn3)cc2)C(=O)O1 [Example 86] |  | 15.5 mg/kg | 2 µg/mL (≈ 6.42 µM) | > 128 µg/mL |

Reference: patent publication US5254577A, “Aminomethyloxooxazolidinyl arylbenzene derivatives useful as antibacterial agents” (The Du Pont Merck Pharmaceutical Company, priority 1992, dated 1993)
